Test system: platelet function
Assay: examination of the coagulation function of the global, in particular the primary, hemostasis; volumetric flow regulated by pressure change in the reaction opening at constant shear rate
Type: cell-based
Details: FIG. 29; volumetric flow regulated at specified constant shear rate
From the text: The sealing time and the sealing volume are measurement values for clinical analysis.

**Q.** `CC(=O)Oc1ccccc1C(=O)O` [ASA, acetylsalicylic acid] was tested. Which “deposition of platelets in the reaction opening” value did it give?
**A.** Its value is “hardly any deposition of platelets”.

**Q.** And the “measurement limits (sealing time / sealing volume)” value?
**A.** Its value is “not reached”.

Source: patent US7223365B2, “Device and method for detecting the coagulation functions of global, especially primary hemostasis” (priority 2000, dated 2007)
